The values that follow are results of earlier work, collected in paper PMC3433420 (PLoS ONE, 2012).

What is called Kd is the equilibrium constant for the complex coming apart.

Read-outs that look alike come from different tables or passages of the source.

The target of the series is SH2 and PTB domains. The note with it: cited from earlier work. An excerpt: Supplement pone.0044471.s022.xlsx, sheet "Most recent PM interactions" | column: Kd || Supplement pone.0044471.s022.xlsx, sheet "All original PM interactions" | column: Kd
The mark [1] stands for this setting: protein ABL2, ref Jones et al. 2006 / Kaushansky et al. Mol Biosys 2008 / Kaushansky et al. Chem and Biol 2008.
Setting [2] is: protein BLK, ref Jones et al. 2006 / Kaushansky et al. Mol Biosys 2008 / Kaushansky et al. Chem and Biol 2008.

Consider “EDYEpYMNRQRDGd [ErbB3 pY1262, N-terminally rhodamine-labeled 13-mer phosphopeptide]”, for which the Kd reads like this: (Protein PIK3R3-NC, original PM interactions, ref Jones et al. 2006 / Kaushansky et al. Chem and Biol 2008) 2 µM; (Protein PLCG2-NC, original PM interactions, ref Jones et al. 2006 / Kaushansky et al. Chem and Biol 2008) 2 µM; (Protein RASA1-NC, original PM interactions, ref Jones et al. 2006 / Kaushansky et al. Chem and Biol 2008) 2 µM; (Protein SLA, original PM interactions, ref Jones et al. 2006 / Kaushansky et al. Chem and Biol 2008) 2 µM; (Protein SOCS5, original PM interactions, ref Jones et al. 2006 / Kaushansky et al. Chem and Biol 2008) 2 µM; (protein ABL2, ref Jones et al. 2006 / Kaushansky et al. Chem and Biol 2008) 1.96 µM. The Kd (protein RASA1-N, ref Jones et al. 2006 / Kaushansky et al. Chem and Biol 2008) is 1.21 µM.

For the substance “EEKEpYHAEGGKVd [ErbB1 pY869, N-terminally rhodamine-labeled 13-mer phosphopeptide]”, the Kd was 2 µM under setting [1] and 1.71 µM under setting [2].

With “EEYEpYMNRRRRHd [ErbB3 pY1199, N-terminally rhodamine-labeled 13-mer phosphopeptide]”, the Kd is, setting by setting: (protein ABL2, ref Kaushansky et al. Chem and Biol 2008) 0.3 µM; (protein BLK, ref Kaushansky et al. Chem and Biol 2008) 1.81 µM; (protein FGR, ref Kaushansky et al. Chem and Biol 2008) 1.13 µM; (protein PIK3R1-NC, ref Kaushansky et al. Chem and Biol 2008) 1.51 µM; (protein PIK3R2-N, ref Kaushansky et al. Chem and Biol 2008) 1.35 µM; (protein PIK3R3-N, ref Kaushansky et al. Chem and Biol 2008) 1.38 µM. In addition, the Kd reads like this: (protein PIK3R3-NC, ref Kaushansky et al. Chem and Biol 2008) 1.46 µM; (protein RASA1-N, ref Kaushansky et al. Chem and Biol 2008) 0.31 µM; (protein YES1, ref Kaushansky et al. Chem and Biol 2008) 0.59 µM; (protein ZAP70-NC, ref Kaushansky et al. Chem and Biol 2008) 1.47 µM.

In the case of ELMTFGSKPpYDGIPASEd [ErbB1 915], the Kd is, setting by setting: (Protein ABL2, most recent PM interactions, ref Jones et al. 2006 / Kaushansky et al. Mol Biosys 2008 / Kaushansky et al. Chem and Biol 2008) 0.18 µM; (Protein BLK, most recent PM interactions, ref Jones et al. 2006 / Kaushansky et al. Mol Biosys 2008 / Kaushansky et al. Chem and Biol 2008) 1.18 µM; (Protein RASA1-N, most recent PM interactions, ref Jones et al. 2006 / Kaushansky et al. Mol Biosys 2008 / Kaushansky et al. Chem and Biol 2008) 1.41 µM; (Protein SHB, most recent PM interactions, ref Jones et al. 2006 / Kaushansky et al. Mol Biosys 2008 / Kaushansky et al. Chem and Biol 2008) 1.06 µM; (Protein SYK-NC, most recent PM interactions, ref Jones et al. 2006 / Kaushansky et al. Mol Biosys 2008 / Kaushansky et al. Chem and Biol 2008) 1.55 µM; (Protein YES1, most recent PM interactions, ref Jones et al. 2006 / Kaushansky et al. Mol Biosys 2008 / Kaushansky et al. Chem and Biol 2008) 0.33 µM.

Turning to “ENAEpYLRVAPQSd [ErbB1 pY1197, N-terminally rhodamine-labeled 13-mer phosphopeptide]”, the Kd is 0.21 µM under setting [1]; 0.5 µM under setting [2]; 1.07 µM (protein CRK, ref Jones et al. 2006 / Kaushansky et al. Mol Biosys 2008 / Kaushansky et al. Chem and Biol 2008); 1.34 µM (protein CRKL, ref Jones et al. 2006 / Kaushansky et al. Mol Biosys 2008 / Kaushansky et al. Chem and Biol 2008); 0.62 µM (protein FGR, ref Jones et al. 2006 / Kaushansky et al. Mol Biosys 2008 / Kaushansky et al. Chem and Biol 2008); 0.42 µM (protein GRB2, ref Jones et al. 2006 / Kaushansky et al. Mol Biosys 2008 / Kaushansky et al. Chem and Biol 2008). For the same substance, the Kd by setting is: (protein ITK, ref Jones et al. 2006 / Kaushansky et al. Mol Biosys 2008 / Kaushansky et al. Chem and Biol 2008) 0.5 µM; (protein LYN, ref Jones et al. 2006 / Kaushansky et al. Mol Biosys 2008 / Kaushansky et al. Chem and Biol 2008) 0.17 µM; (protein PIK3R1-N, ref Jones et al. 2006 / Kaushansky et al. Mol Biosys 2008 / Kaushansky et al. Chem and Biol 2008) 0.5 µM; (protein PIK3R1-NC, ref Jones et al. 2006 / Kaushansky et al. Mol Biosys 2008 / Kaushansky et al. Chem and Biol 2008) 0.5 µM; (protein PIK3R2-N, ref Jones et al. 2006 / Kaushansky et al. Mol Biosys 2008 / Kaushansky et al. Chem and Biol 2008) 0.5 µM; (protein PIK3R3-NC, ref Jones et al. 2006 / Kaushansky et al. Mol Biosys 2008 / Kaushansky et al. Chem and Biol 2008) 0.81 µM. The Kd reads like this: (protein PLCG2-NC, ref Jones et al. 2006 / Kaushansky et al. Mol Biosys 2008 / Kaushansky et al. Chem and Biol 2008) 0.5 µM; (protein RASA1-N, ref Jones et al. 2006 / Kaushansky et al. Mol Biosys 2008 / Kaushansky et al. Chem and Biol 2008) 0.71 µM; (protein RASA1-NC, ref Jones et al. 2006 / Kaushansky et al. Mol Biosys 2008 / Kaushansky et al. Chem and Biol 2008) 0.5 µM; (protein SHC1-PTB, ref Jones et al. 2006 / Kaushansky et al. Mol Biosys 2008 / Kaushansky et al. Chem and Biol 2008) 0.34 µM; (protein SHC1, ref Jones et al. 2006 / Kaushansky et al. Mol Biosys 2008 / Kaushansky et al. Chem and Biol 2008) 0.78 µM; (protein SHC3, ref Jones et al. 2006 / Kaushansky et al. Mol Biosys 2008 / Kaushansky et al. Chem and Biol 2008) 1.03 µM. Moreover, the Kd reads like this: (protein SRC, ref Jones et al. 2006 / Kaushansky et al. Mol Biosys 2008 / Kaushansky et al. Chem and Biol 2008) 0.38 µM; (protein SYK-N, ref Jones et al. 2006 / Kaushansky et al. Mol Biosys 2008 / Kaushansky et al. Chem and Biol 2008) 0.29 µM; (protein SYK-NC, ref Jones et al. 2006 / Kaushansky et al. Mol Biosys 2008 / Kaushansky et al. Chem and Biol 2008) 0.38 µM; (protein TEC, ref Jones et al. 2006 / Kaushansky et al. Mol Biosys 2008 / Kaushansky et al. Chem and Biol 2008) 0.48 µM; (protein YES1, ref Jones et al. 2006 / Kaushansky et al. Mol Biosys 2008 / Kaushansky et al. Chem and Biol 2008) 0.13 µM.

As to “ENPEpYLGLDVPVd [ErbB2 pY1248, N-terminally rhodamine-labeled 13-mer phosphopeptide]”, the Kd by setting is: (Protein ABL2, original PM interactions, ref Jones et al. 2006 / Kaushansky et al. Chem and Biol 2008) 0.21 µM; (Protein SHC1-PTB, original PM interactions, ref Jones et al. 2006 / Kaushansky et al. Chem and Biol 2008) 0.28 µM.

With “ENPEpYLSEFSLKd [ErbB4 pY1284, N-terminally rhodamine-labeled 13-mer phosphopeptide]”, the Kd (protein ABL2, ref Jones et al. 2006) was 0.22 µM; the Kd (protein PIK3R2-NC, all original PM interactions, ref Jones et al. 2006) was 2 µM; the Kd (protein PIK3R2-NC, ref Jones et al. 2006) was 2 µM; the Kd (protein PIK3R3-NC, all original PM interactions, ref Jones et al. 2006) is 2 µM; the Kd (protein PIK3R3-NC, ref Jones et al. 2006) was 2 µM; the Kd (protein PLCG1-NC, all original PM interactions, ref Jones et al. 2006) was 2 µM. In addition, the Kd by setting is: (protein PLCG1-NC, ref Jones et al. 2006) 2 µM; (protein RASA1-N, ref Jones et al. 2006) 0.71 µM; (protein SH2B3, all original PM interactions, ref Jones et al. 2006) 2 µM; (protein SH2B3, ref Jones et al. 2006) 2 µM; (protein SHC1-PTB, ref Jones et al. 2006) 0.024 µM; (protein SLA2, all original PM interactions, ref Jones et al. 2006) 2 µM. The Kd is 2 µM (protein SLA2, ref Jones et al. 2006); 1.67 µM (protein SYK-NC, ref Jones et al. 2006); 2 µM (protein VAV2, all original PM interactions, ref Jones et al. 2006); 2 µM (protein VAV2, ref Jones et al. 2006).
